Measured values from patent US8530669B2, “Ester compound and use thereof” (Sumitomo Chemical Company, Limited, priority 2010, dated 2013).

How the values were obtained:
[1] = system: common mosquitoes (Culex pipens pallens); experiment: Test Example 2: oil solution spray knock-down test on common mosquitoes in glass chamber; type: in vivo; conditions: adult female Culex pipens pallens, 0.025% (w/v) oil solution sprayed into 70 cm cubic glass chamber, 1 minute after spraying
Protocol: Zero point zero two five (0.025) part of the compound of the present invention (1) and (4) was dissolved in 10 parts of isopropyl alcohol, and the solution was mixed with 89.975 parts of deodorized kerosene to prepare a 0.025% (w/v) oil solution.
(§1) Ten adult female common mosquitoes (Culex pipens pallens) were released in a cubic glass chamber having each side of 70 cm. The oil solution of the compound of the present invention (1) and (4) was sprayed into the chamber through a small window on the side of the chamber using a spraying gun at a pressure of 0.9 kg/cm^2. One minutes after spraying, the number of knocked-down mosquitoes was counted and a knock-down ratio was determined. A knocked-down ratio was calculated by the following equation. Knocked-down ratio(%)=(Number of knocked-down mosquitoes/Number of test mosquitoes)×100

[2] = system: houseflies (Musca domestica); experiment: Test Example 3: oil solution spray knock-down test on houseflies in glass chamber; type: in vivo; conditions: adult Musca domestica, 0.7 ml of 0.025% (w/v) oil solution sprayed into 70 cm cubic glass chamber
Protocol: Zero point zero two five (0.025) part of the compound of the present invention (1) and (4) was dissolved in 10 parts of isopropyl alcohol, and the solution was mixed with […] parts of deodorized kerosene to prepare a 0.025% (w/v) oil solution.
as §1, with “houseflies (Musca domestica)” for “female common mosquitoes (Culex pipens pallens)”, “cm, and 0.7 ml of the” for “cm. The”, “Five” for “One”, “flies” for “mosquitoes”, “flies/Number” for “mosquitoes/Number”, “flies)×100” for “mosquitoes)×100”

[3] = system: German cockroaches (Blattella germanica); experiment: Test Example 8: oil solution spray knock-down test on German cockroaches; type: in vivo; conditions: adult German cockroaches, 1.5 ml of 0.00625% (w/v) oil solution sprayed, repeated once
Protocol: Zero point zero zero six two five (0.00625) part of the compound of the present inventions (1), (2), (3), (4) and (5) was dissolved in 10 parts of isopropyl alcohol and the solution was mixed with 89.99375 parts of deodorized kerosene to prepare a 0.00625% (w/v) oil solution.
Ten adult German cockroaches (Blattella germanica, 5 males and 5 females) were released in a test container (diameter 8.75 cm, 7.5 cm high, the bottom face is made of 16 mesh metallic wire), the inner face on which butter was applied, and the container was set at the bottom of a test chamber (bottom face: 46 cm×46 cm, height: 70 cm).
Each 1.5 ml of the oil solution of the compound of the present invention (1), (2), (3), (4) and (5) was sprayed using a spray gun at a pressure of 0.4 kg/cm^2 from 60 cm higher than the upper face of the container. Thirty seconds after the spraying, the container was pulled out from the chamber. Two minutes after spraying, the number of knocked-down cockroaches was counted and a knock-down ratio was determined (repeated once). A knocked-down ratio was calculated by the following equation. Knocked-down ratio(%)=(Number of knocked-down cockroaches/Number of test cockroaches)×100 The results (2 minutes after spraying) are shown in Table 5.

[4] = system: American cockroaches (Periplaneta Americana); experiment: Test Example 7: oil solution spray knock-down test on American cockroaches; type: in vivo; conditions: adult American cockroaches, 1.5 ml of 0.1% (w/v) oil solution sprayed, repeated twice
Protocol: (§2) Zero point one (0.1) part of the compound of the present inventions (1), (2) and (4) was dissolved in 10 parts of isopropyl alcohol and the solution was mixed with 89.9 parts of deodorized kerosene to prepare a 0.1% (w/v) oil solution.
(§3) Six adult American cockroaches (Periplaneta Americana, 3 males and 3 females) were released in a test container (diameter 12.5 cm, 10 cm high, the bottom face is made of 16 mesh metallic wire), the inner face on which butter was applied, and the container was set at the bottom of a test chamber (bottom face: 46 cm×46 cm, height: 70 cm). Each 1.5 ml of the oil solution of the compound of the present invention (1), (2) and (4) was sprayed using a spray gun at a pressure of 0.4 kg/cm^2 from 60 cm higher than the upper face of the container. Thirty seconds after the spraying, the container was pulled out from the chamber. Three minutes after spraying, the number of knocked-down cockroaches was counted and a knock-down ratio was determined (repeated twice). The knocked-down ratio was calculated by the following equation. Knocked-down ratio(%)=(Number of knocked-down cockroaches/Number of test cockroaches)×100

[5] = system: American cockroaches (Periplaneta Americana); experiment: Test Example 1: oil solution spray knock-down test on American cockroaches; type: in vivo; conditions: adult American cockroaches, 1.5 ml of 0.1% (w/v) oil solution sprayed, repeated twice
Protocol: as §2
as §3, with “After a prescribed time,” for “Three minutes after spraying,”
For comparison, the test was conducted in the same manner as the above, except for using 2,5-dioxo-3-(2-propynyl)imidazolidinylmethyl=(1R)-cis-3-((Z)-2-cyano-2-methoxyethenyl)-2,2-dimethylcyclopropane carboxylate (compound described in JP-A-60-16962, hereinafter referred to as the comparative compound (1)) represented by the following formula: […]

SMILES | Knock-down ratio (%) 1 minutes after spraying [1] | Knock-down ratio (%) 5 minutes after spraying [2] | Knock-down ratio (%) 2 minutes after spraying [3] | Knock-down ratio (%) 3 minutes after spraying [4] | Knock-down ratio (%) 2 minutes after spraying [5] | melting point
C#CCn1c(C)nn(COC(=O)[C@@H]2[C@@H](C=C(C#N)SC)C2(C)C)c1=O [compound of the present invention (1), 3-methyl-5-oxo-4-(2-propynyl)-4,5-dihydro-[1,2,4]triazolylmethyl=(1R)-trans-3-[(1EZ)-2-cyano-2-(methylthio)ethenyl]-2,2-dimethylcyclopropane carboxylate] | 95% | 80% | 100% | 100% | 100% | –
C#CCn1c(C)nn(COC(=O)[C@@H]2[C@@H](/C=C(\C#N)SC)C2(C)C)c1=O [compound of the present invention (2), 3-methyl-5-oxo-4-(2-propynyl)-4,5-dihydro-[1,2,4]triazolylmethyl=(1R)-trans-3-[(1E)-2-cyano-2-(methylthio)ethenyl]-2,2-dimethylcyclopropane carboxylate] | – | – | 100% | 100% | 92% | 104 to 105 °C
C#CCn1c(C)nn(COC(=O)[C@@H]2[C@@H](C=C(C#N)SCC)C2(C)C)c1=O (relative stereo) [compound of the present invention (5), 3-methyl-5-oxo-4-(2-propynyl)-4,5-dihydro-[1,2,4]triazolylmethyl=(1R)-trans-3-[(1EZ)-2-cyano-2-(ethylthio)ethenyl]-2,2-dimethylcyclopropane carboxylate] | – | – | 90% | – | – | –
C#CCn1c(C)nn(COC(=O)[C@@H]2[C@@H](C=C(C#N)SCC)C2(C)C)c1=O [compound of the present invention (3), 3-methyl-5-oxo-4-(2-propynyl)-4,5-dihydro-[1,2,4]triazolylmethyl=(1R)-trans-3-[(1EZ)-2-cyano-2-(ethylthio)ethenyl]-2,2-dimethylcyclopropane carboxylate] | – | – | 100% | – | – | –
C#CCn1c(C)nn(COC(=O)[C@@H]2[C@@H](/C=C(\C#N)SCC)C2(C)C)c1=O [compound of the present invention (4), 3-methyl-5-oxo-4-(2-propynyl)-4,5-dihydro-[1,2,4]triazolylmethyl=(1R)-trans-3-[(1E)-2-cyano-2-(ethylthio)ethenyl]-2,2-dimethylcyclopropane carboxylate] | 100% | 80% | 100% | 100% | 100% | –
C#CCn1c(C)nn(COC(=O)[C@@H]2[C@@H](C=C(C)C)C2(C)C)c1=O [comparative compound (2), 3-methyl-5-oxo-4-(2-propynyl)-4,5-dihydro-[1,2,4]triazolylmethyl=(1R)-trans-3-(2-methyl-1-propenyl)-2,2-dimethylcyclopropane carboxylate, reference compound] | – | – | – | – | 33% | –
C#CCN1CC(=O)N(COC(=O)[C@@H]2[C@H](/C=C(/C#N)OC)C2(C)C)C1=O [comparative compound (1), 2,5-dioxo-3-(2-propynyl)imidazolidinylmethyl=(1R)-cis-3-((Z)-2-cyano-2-methoxyethenyl)-2,2-dimethylcyclopropane carboxylate, reference compound] | – | – | – | – | 42% | –
